Results taken from publication PMC8000592, “Discovery and Optimization of Selective Inhibitors of Meprin α (Part I)” (Pharmaceuticals, 2021).
Where two headings read alike, the source gives them in different places. Values belong to the molecule of their own block, whether it stands above or below them.

Columns and labels:
meprin β [1] = target: T1, meprin β (Homo sapiens, UniProt Q16820); experiment: Meprin β assay, fluorogenic substrate (Mca)-EDEDED-(K-ε-Dnp), 384 and 1536 well plate formats; format: biochemical
T1 sequence (Q16820 62-594 limits assumed): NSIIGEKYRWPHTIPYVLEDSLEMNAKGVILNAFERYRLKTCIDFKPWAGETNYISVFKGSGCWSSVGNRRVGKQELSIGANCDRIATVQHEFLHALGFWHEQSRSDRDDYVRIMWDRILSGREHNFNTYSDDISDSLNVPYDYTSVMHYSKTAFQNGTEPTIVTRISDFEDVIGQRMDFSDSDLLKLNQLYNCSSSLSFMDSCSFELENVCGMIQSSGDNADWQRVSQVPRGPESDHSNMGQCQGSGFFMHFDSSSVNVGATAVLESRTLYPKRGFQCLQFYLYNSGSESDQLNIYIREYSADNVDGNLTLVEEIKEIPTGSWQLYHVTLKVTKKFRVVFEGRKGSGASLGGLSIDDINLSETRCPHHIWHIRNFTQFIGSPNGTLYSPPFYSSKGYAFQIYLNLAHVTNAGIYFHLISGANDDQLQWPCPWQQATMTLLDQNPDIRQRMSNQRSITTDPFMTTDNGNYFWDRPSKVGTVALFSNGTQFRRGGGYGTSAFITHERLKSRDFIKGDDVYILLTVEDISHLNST
From the text: (§1) The meprin α and meprin β assays, which utilize the substrates (Mca)-YVADAPK-(K-ε-Dnp) and (Mca)-EDEDED-(K-ε-Dnp), respectively, have been described previously. To enable an ultra-high-throughput screening (uHTS) campaign, we proceeded to miniaturize both assays to 1536 well plate format (wpf). First, we recapitulated the assays in 1536 well plate using reagents at the same concentrations as in 384 well plate format assays by scaling the volume down by the factor of 2.5.
(§2) Both assays followed the same general protocol. A 5 µL measure of 2 × enzyme solution (2.6 and 0.1 nM for meprin α and meprin β, respectively) in assay buffer (50 mM Hepes, 0.01% Brij-35, pH 7.5) was added to solid bottom black 384 low volume plates (Nunc, cat# 264705). Next, 75 nL of test compounds or pharmacological control (actinonin or NFF449) were added to corresponding wells using a 384-pin tool device (V&P Scientific, San Diego, CA, USA). After 30 min incubation at RT, the reactions were started by addition of 5 µL of 2 × solutions of substrates (20 µM, mepin α substrate Mca-YVADAPK-K(Dnp) or meprin β substrate Mca-EDEDED-K(Dnp)). Reactions were incubated at RT for 1 h, after which the fluorescence was measured using the Synergy H4 multimode microplate reader (Biotek Instruments) (λexcitation = 324 nm, λemission = 390 nm).
(§3) Both assays followed the same general protocol. A 2 µL portion of 2 × enzyme solution (1.3 and 0.0125 nM for meprin α and meprin β, respectively) in assay buffer (50 mM Hepes, 0.01% Brij-35, pH 7.5) was added to solid bottom black 1536 low volume plates (Corning cat# 7261). Next, 30 nL of test compounds or pharmacological control (actinonin or NFF449) was added to corresponding wells using a 1536 pin tool device (V&P Scientific, San Diego). After 30 min incubation at RT, the reactions were started by addition of 2 µL of 2x solutions of substrates (20 µM, meprin α substrate Mca-YVADAPK-K(Dnp) or meprin β substrate Mca-EDEDED-K(Dnp)). Reactions were incubated at RT for 1 h, after which the fluorescence was measured using the Viewlux multimode microplate reader (Perkin Elmer) (λexcitation = 324 nm, λemission = 390 nm).
(§4) The miniaturized 1536-well plate format meprin α and meprin β assays were used to screen a collection of approximately 650,000 compounds (The Scripps Research library, La Jolla, CA, USA) on the automated Kalypsys/GNF platform at The Scripps Research Molecular Screening Center (SRMSC, Jupiter, FL, USA: http://hts.florida.scripps.edu/). Both uHTS campaigns were run separately but in a similar manner. Briefly, the first step was the primary screen of all test compounds as singlicates against the meprin α and meprin β target at a final concentration of 7.0 μM. Next, compounds selected as primary hits were cherry-picked and retested in triplicate against the primary screen target and its antitarget (meprin α for the meprin β screening effort, and vice versa) at a same final concentration of 7.0 μM. The additional counter screen assays against related metzincins (MMP-8, MMP-14, and ADAM10) were performed in triplicate at a final concentration of 7.0 μM. The final step was the titration of selected hits as 10-point, 1:3 serial dilutions in both the target and antitarget assay, starting at a final nominal concentration of 17 μM. […] Wells treated with DMSO only were used as negative controls and 0% inhibition reference. […] All data generated during this effort were uploaded to the SRMSC’s institutional screening database (Assay Explorer, Symyx). Sample to background (S/B) ratios, as well as Z and Z’ values, were calculated on a per plate basis as described 14. Curve fitting and resulting IC50 determinations were performed as previously reported.

meprin α = target: T2, meprin α (Homo sapiens, UniProt Q16819); experiment: Meprin α assay, fluorogenic substrate (Mca)-YVADAPK-(K-ε-Dnp), 384 and 1536 well plate formats; format: biochemical; details: for selectivity for meprin α: versus meprin β, in words
T2 sequence (Q16819 66-593 limits assumed): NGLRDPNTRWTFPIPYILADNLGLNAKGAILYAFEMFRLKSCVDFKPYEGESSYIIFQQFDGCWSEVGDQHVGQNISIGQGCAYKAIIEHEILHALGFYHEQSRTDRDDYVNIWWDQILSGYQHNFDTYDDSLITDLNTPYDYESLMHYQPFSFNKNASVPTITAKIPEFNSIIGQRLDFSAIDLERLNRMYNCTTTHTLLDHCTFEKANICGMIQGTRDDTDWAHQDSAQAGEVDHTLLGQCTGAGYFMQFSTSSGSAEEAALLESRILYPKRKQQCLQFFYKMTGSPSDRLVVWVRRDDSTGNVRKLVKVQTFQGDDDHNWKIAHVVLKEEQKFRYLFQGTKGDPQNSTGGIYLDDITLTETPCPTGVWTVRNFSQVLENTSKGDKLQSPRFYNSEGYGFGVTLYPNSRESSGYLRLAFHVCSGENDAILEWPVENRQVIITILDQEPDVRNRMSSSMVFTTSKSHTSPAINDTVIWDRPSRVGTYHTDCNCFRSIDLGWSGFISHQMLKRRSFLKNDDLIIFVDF
From the text: as §1, §2, §3, §4

MMP and ADAM = details: cited from earlier work
meprin β [2] = details: cited from earlier work
[3] = triplicate, 10-point, 3:1 serial dilution, highest concentration 17.4 µM, read-out: Meprin β IC50
[4] = triplicate, 10-point, 3:1 serial dilution, highest concentration 17.4 µM, read-out: Meprin α IC50

Compound: O=C(CSc1nnc(NC(=O)c2ccccc2)s1)NO [Compound 19847]
IC50 (meprin β [1]; [3]): 1430 nM
IC50 (meprin α; [4]): 892 nM

Compound: O=C(CSc1nnc(NC(=O)COc2ccccc2)s1)NO [Compound 19848]
IC50 (meprin β [1]; [3]): 385 nM
IC50 (meprin α; [4]): 335 nM

Compound: COc1cc(OC)cc(C(=O)CNc2nnc(SCC(=O)NO)s2)c1 [Compound 19849]
IC50 (meprin β [1]; [3]): 287 nM
IC50 (meprin α; [4]): 218 nM

Compound: COc1ccc(-n2c(CSc3ncccn3)nnc2SCC(=O)NO)cc1 [Compound 19855]
IC50 (meprin β [1]; [3]): > 17000 nM
selectivity for meprin α (meprin α): show selectivity for meprin α

Compound: O=C(CCN(Cc1cccs1)S(=O)(=O)c1ccc([N+](=O)[O-])cc1)NO [Compound 162799]
IC50 (meprin β [1]; [3]): > 17000 nM
selectivity against meprin β and other tested metzincins (meprin α): > 30 fold
Meprin α IC50 (meprin α; triplicate, 10-point, 3:1 serial dilution, highest concentration 17.4 µM): sub-micromolar
IC50 (meprin α; [4]): 564 nM
selectivity for meprin α (meprin α): show selectivity for meprin α

Compound: O=C(CCN(Cc1ccccc1)S(=O)(=O)c1ccc(F)cc1)NO [Compound 162808]
IC50 (meprin β [1]; [3]): > 17000 nM
selectivity against meprin β and other tested metzincins (meprin α): > 30 fold
Selectivity Fold (meprin α; meprin α versus meprin β): 38 fold
IC50 (meprin α; [4]): 446 nM
selectivity for meprin α (meprin α): show selectivity for meprin α

Compound: O=C(COc1ccc(Cl)cc1Cl)NO [Compound 1596857]
IC50 (meprin β [1]): > 17000 nM
IC50 (meprin α): 1180 nM

increased apparent potency (meprin β [1]; 2.5 µM substrate condition): 3 fold
IC50 (meprin β [1]; 1536 wpf, 0.0125 nM enzyme, substrate 2.5uM, time 30 min, read-out: NF449 IC50): 10 nM
IC50 (meprin β [1]; 1536 wpf, 0.0125 nM enzyme, substrate 2.5uM, time 60 min, read-out: NF449 IC50): 11 nM
IC50 (meprin β [1]; 1536 wpf, 0.0125 nM enzyme, substrate 5uM, time 30 min, read-out: NF449 IC50): 17 nM
IC50 (meprin β [1]; 1536 wpf, 0.0125 nM enzyme, substrate 5uM, time 60 min, read-out: NF449 IC50): 20 nM
IC50 (meprin β [1]; 1536 wpf, 0.0125 nM enzyme, substrate 5uM, time 90 min, read-out: NF449 IC50): 22 nM
IC50 (meprin β [1]; 1536 wpf, 0.0125 nM enzyme, substrate 10uM, time 30 min, read-out: NF449 IC50): 34 nM
IC50 (meprin β [1]; 1536 wpf, 0.0125 nM enzyme, substrate 10uM, time 60 min, read-out: NF449 IC50): 32 nM
IC50 (meprin β [1]; 1536 wpf, 0.0125 nM enzyme, substrate 10uM, time 90 min, read-out: NF449 IC50): 34 nM
IC50 (meprin β [1]; 1536 wpf, enzyme 0.0125nM, time 30 min, read-out: NF449 IC50): 25.2 nM
IC50 (meprin β [1]; 1536 wpf, enzyme 0.0125nM, time 60 min, read-out: NF449 IC50): 30.4 nM
IC50 (meprin β [1]; 1536 wpf, enzyme 0.0125nM, time 90 min, read-out: NF449 IC50): 33.9 nM
IC50 (meprin β [1]; 1536 wpf, enzyme 0.025nM, time 30 min, read-out: NF449 IC50): 31 nM
IC50 (meprin β [1]; 1536 wpf, enzyme 0.025nM, time 60 min, read-out: NF449 IC50): 36.2 nM
IC50 (meprin β [1]; 1536 wpf, enzyme 0.025nM, time 90 min, read-out: NF449 IC50): 39.2 nM
IC50 (meprin β [1]; 1536 wpf, enzyme 0.05nM, time 30 min, read-out: NF449 IC50): 29.6 nM
IC50 (meprin β [1]; 1536 wpf, enzyme 0.05nM, time 60 min, read-out: NF449 IC50): 34.6 nM
IC50 (meprin β [1]; 1536 wpf, enzyme 0.05nM, time 90 min, read-out: NF449 IC50): 39.4 nM
IC50 (meprin β [1]; Meprin β 384 wpf, read-out: IC50): 53 nM
IC50 (meprin β [1]; Meprin β 1536 wpf, read-out: IC50): 48 nM
IC50 (meprin β [1]; control compound in primary HTS campaign, n = 11 plates, read-out: IC50): 10.4 ± 0.85 nM
IC50 (meprin α; Meprin α 384 wpf, read-out: IC50): > 100000 nM
IC50 (meprin α; Meprin α 1536 wpf, read-out: IC50): > 100000 nM
Compound: O=C(Nc1cc(C(=O)Nc2ccc(S(=O)(=O)O)cc2S(=O)(=O)O)cc(C(=O)Nc2ccc(S(=O)(=O)O)cc2S(=O)(=O)O)c1)Nc1cc(C(=O)Nc2ccc(S(=O)(=O)O)cc2S(=O)(=O)O)cc(C(=O)Nc2ccc(S(=O)(=O)O)cc2S(=O)(=O)O)c1 [NFF449]
selectivity against adamalysins and matrixins (MMP and ADAM): good selectivity
Ki (meprin β [2]): 22 nM

Compound: O=[N+]([O-])c1ccc(CN2CCC3(CCc4ccccc43)CC2)o1 [SR207820]
IC50 (meprin β [1]; [3]): 1500 nM
IC50 (meprin α; [4]): > 17000 nM

Compound: O=C(c1ccc(C(=O)O)c([N+](=O)[O-])c1)c1ccc(C(=O)O)c([N+](=O)[O-])c1 [SR355996]
IC50 (meprin β [1]; [3]): 970 nM
IC50 (meprin α; [4]): > 17000 nM

Compound: CSc1nnc2c(n1)OC(c1ccc([N+](=O)[O-])o1)Nc1ccccc1-2 (stereo not drawn) [SR412882]
IC50 (meprin β [1]; [3]): 3500 nM
IC50 (meprin α; [4]): > 17000 nM
